Measurements reported in patent US20250262167A1, “COMPOUNDS, TARGETS AND PATHWAYS FOR MACROPHAGE MODULATION” (Massachusetts Institute of Technology, priority 2020, published 2025).

What was measured:
[1] = test system: bone marrow derived macrophages (BMDMs); experiment: Seahorse ECAR (glycolysis) in BMDMs; assay type: cell-based, mouse; conditions: Pkm−/− BMDMs, 50 nM
Procedure: FIGS. 21A-21I show DPI stimulates glycolysis through GPR3 and β-arrestin2. FIGS. 21A-21B show DPI-stimulated glycolysis is independent of the NOX activity. […] The mean fluorescence intensity (MFI) of 2-NBDG in cells was measured by flow cytometry and normalized to DMSO controls of wildtype BMDMs. Data are presented as the mean±sd (n=3). […] ImKCs were transfected with siRNA specific for Gpr3 or a scramble siRNA as control. […] Data are presented as the mean±sd (n=4). […] Data are presented as the mean±sd (n=12). […] Abbr2^−/− ImKC were constructed by CRISPR-Cas9-mediated gene editing. […] Data are presented as the mean±sd (n=4). […]
Specific parameters for glycolytic capacity and glycolytic reserve were calculated and summarized based on two independent experiments. […]
FIGS. 29A-29B show comparison of DPI's effect on glycolysis in wild-type and Pkm^−/− BMDMs. […] ImKCs were treated with DMSO or DPI alone (500 nM) or DPI plus ERK1/2 inhibitor (SCH772984, […]) for 6 hrs and the enzymatic activities of PKM2 (c) and GAPDH (d) were measured by colorimetric assay kits (Biovision). […]
OCR and ECAR were measured in isolated tissues or cultured ImKCs using the Seahorse XFe Extracellular Flux Analyzer (Agilent). […] Glucose levels were determined using a glucose (GO) assay kit (Sigma). […] Lactate levels were determined using a lactate assay kit (Eton Bioscience). […]

[2] = test system: luciferase-expressing human B lymphoma cells (GMB); experiment: Human B lymphoma (GMB-luc) model in NSG mice; assay type: in vivo, mouse
Procedure: NSG mice were grafted with 1×10^7 GMB-luc cells and dosed twice at 14 and 21 days later with 0.5 mg/kg Rituximab (Ritu) and/or 300 mg/kg thiostrepton (Thio). Tumor burden was monitored (FIG. 18A) and quantified (FIG. 18B) by imaging the luciferase activity in vivo (n=5˜6 mice per group). Data are shown as mean±s.e.m. At day 28 post tumor engraftment, bone marrow cells were analyzed by flow cytometry (FIG. 18C). Shown are representative F4/80 versus CD11b staining profiles gating on CD45^+ cells (top panel), Ly6C versus Ly6G staining profiles gating on F4/80^+CD11b^+ cells (bottom panel). MHCII histograms gating on macrophages from FIG. 18C. […] Data shown are mean±s.d. * P<0.05, ** P<0.01 and *** P<0.001, by T-test.
For the melanoma model, an inoculum of 1×10^6 B16F10 tumor cells was injected subcutaneously on the flank of 8- to 10-week-old male B6 mice in […] sterile PBS. Six days following tumor inoculation, mice were randomized into 4 treatment groups including control (PBS or DMSO), tumor-targeting antibody TA99, compound, compound plus TA99. TA99 was administered at […] per dose intraperitoneally (I.P.). The compound was administrated at the indicated dosage by either I.P. or paratumor injection subcutaneously (S.C.). All mice were dosed at day 6 and day 12 post tumor inoculation for a total of 2 treatments. Tumor size was measured as an area (longest dimension×perpendicular dimension) at day 6, day 12 and day 18 post tumor inoculation. Mice were euthanized for analysis at day 18 post tumor inoculation. For the lymphoma model, 1×10^7 GMB cells were injected through tail intravenously in 100 μL sterile PBS into 10- to 12-week-old male NSG mice. Mice were treated two weeks post tumor cell engraftment. Tumor-targeting antibody Rituxumab (InvivoGen) was administered at 10 mg/kg intraperitoneally. The compound was administrated I.P. at the indicated dosage. All mice were dosed at week 2 and week 3 post tumor injection for a total of 2 treatments. […]

Row | SMILES | glycolysis, glycolytic capacity and glucose consumption [1] | HFD-induced elevation of serum AST and ALT (HFD 8 weeks) | weight gain (HFD 8 weeks, 2 mg/kg i.p. every five days, vs vehicle) | glucose tolerance (HFD 8 weeks, vs vehicle) | lipid deposition in the liver (HFD 8 weeks, vs vehicle) | iWAT (after 8 weeks on HFD) | tumor burden in the bone marrow ([2]; alone, 300 mg/kg, luciferase imaging) | tumor burden in the bone marrow, with rituximab ([2]; together with rituximab, luciferase imaging) | F4/80+CD11b+ macrophages with higher MHCII in bone marrow ([2]; vs vehicle or rituximab)
1 | c1ccc2c(c1)[I+]c1ccccc1-2 [Diphenyleneiodonium chloride] | did not stimulate any increase | significantly reduced | significantly reduced | significant increase | significantly reduced | significantly lower levels | – | – | –
2 | C=C(NC(=O)C(=C)NC(=O)c1csc(C2=N[C@@H]3c4csc(n4)[C@H]4NC(=O)c5csc(n5)[C@H]([C@](C)(O)[C@@H](C)O)NC(=O)[C@H]5CSC(=N5)/C(=C/C)NC(=O)[C@H]([C@@H](C)O)NC(=O)c5csc(n5)[C@]3(CC2)NC(=O)[C@H](C)NC(=O)C(=C)NC(=O)[C@H](C)NC(=O)[C@H]([C@@H](C)CC)N[C@@H]2C=Cc3c([C@H](C)O)cc(nc3[C@H]2O)C(=O)O[C@@H]4C)n1)C(N)=O [Thiostrepton] | – | – | – | – | – | – | significantly reduced | significantly reduced | higher percentages
